Source: US9370189B2, “Controlling Pseudomonas aeruginosa persister cells with GM-CSF” (priority 2012, dated 2016)

What was measured:
whole cells of E. coli = test: GM-CSF binding assay to bacterial whole cells (slot blot immunoblotting); set-up: species or system Escherichia coli; conditions: PBS, room temperature, 2 h, anti-rhGM-CSF immunoblot (FIG. 21)
Method: (§1) This Example describes experiments conducted to determine the capability of GM-CSF to bind to whole cells of P. aeruginosa and E. coli. In brief, bacteria harvested at stationary phases of growth were washed with PBS and adjusted to OD600 of 0.4 with PBS to ensure that an equal amount of cells was used for all GF-CSF binding tests. Suspensions of bacteria (10^6 CFU) were then incubated with and without different amount of recombinant human GM-CSF (rhGM-CSF, R&D systems) in a 40 μL volume at room temperature for 2 hours. After incubation, the cell suspension was centrifuged to separate supernatant (comprising buffer and unbound GM-CSF) and pellet (comprising cell and bound GM-CSF, if any), followed by the addition of 10 mM EDTA and boiling for 30 minutes to inactivate bacterial alkaline phosphatase activity. As control, PBS buffer with GM-CSF were processed in the similar manner. All the samples were then applied to Slot Blot (BioRad) for immunoblotting experiments. Anti-rhGMCSF developed in mice (Human GM-CSF MAb, Mouse IgG1, R&D system) was used as first antibody; Alkaline Phosphatase conjugated with Anti-mouse IgG was used to detect the binding of GM-CSF with BCIP/NBT (Promega) as substrates.

P. aeruginosa PAO1 = test: Effect of GM-CSF on planktonic PAO1 total population and persister cells at stationary phase, co-treatment with antibiotic; type: cell-based, Pseudomonas aeruginosa
[1] = system: P. aeruginosa PAO1 biofilm; test: Effect of GM-CSF on 24-h PAO1 biofilm, alone and with antibiotic; type: cell-based, Pseudomonas aeruginosa
Method: (§2) This Example describes the treatment of biofilms made from P. aeruginosa PAO1, PDO300 and Escherichia coli K12, with GM-CSF introduced directly or together with an antibiotic to test the synergy.
(§3) In brief, after preparing an overnight culture, it was subcultured to an initial OD600 of 0.01 to a total volume of 20 mL M63 medium (for PAO1 and PDO300) or 20 ml LB medium (for E. coli K12) in a petri dish with 316L stainless steel coupons (1.75 cm×1 cm). The biofilm was grown for 24 h at 37° C. without shaking. After incubation, the coupons were washed by gently dipping in 0.85% NaCl twice using tweezers and were placed in new empty petri dishes.
(§4) To test the synergistic effects between GM-CSF (2.43 pg/mL or 0.17 pM) and antibiotics, a total of 8 coupons were analyzed. These 8 coupons were placed in 4 petri dishes (2 coupons in each dish). The two dishes were labeled as control and the other two as treatment samples. In the treatment samples, GM-CSF was added to 20 mL of 0.85% NaCl to a concentration of 2.43 pg/mL (or 0.17 pM). The control samples were supplemented with the same amount of PBS and BSA as present in the samples with 2.43 pg/ml (or 0.17 pM) GM-CSF. The coupons were incubated at 37° C. for 2 h.
(§5) After incubation, a control dish and a treatment dish was selected for studying the killing effect of 2.43 pg/ml GM-CSF on biofilm cells. Each coupon after gentle washing with 0.85% NaCl buffer, was placed in a test tube with 3 mL 0.85% NaCl buffer in each. They were sonicated (B200, Sinosonic Industrial Co., Ltd., Taiwan) for 4 mins to release the biofilm cells in the buffer. After vortexing for 1 min, they were plated on LB agar plates using drop plate method. The CFU was counted after incubation at 37° C. for 24 h to count the total number of viable cells. Furthermore, the synergistic effect of antibiotics with GM-CSF was evaluated with additional 3.5 h treatment with antibiotic at 37° C. After incubation, drop plate method was performed and the CFU was counted to understand if there is a synergistic effect.

E. coli K12 biofilm = test: Effect of GM-CSF on 24-h E. coli K12 biofilm, alone and with antibiotic; type: cell-based, Escherichia coli
Method: as §2, §3, §4, §5

[2] = system: whole cells of P. aeruginosa; test: GM-CSF binding assay to bacterial whole cells (slot blot immunoblotting); set-up: species or system Pseudomonas aeruginosa; conditions: PBS, room temperature, 2 h, anti-rhGM-CSF immunoblot (FIG. 21)
Method: as §1

For “GM-CSF: granulocyte macrophage-colony stimulating factor, a cytokine secreted by macrophages; recombinant human GM-CSF (R&D systems) in binding tests”, the “binding to whole cells” value (whole cells of E. coli) was “not”, the “% change in avg. CFU/mL by GM-CSF (compared to GM-CSF free control)” value (“% change … (compared to GM-CSF free control)” below) (P. aeruginosa PAO1; persisters, 1.7 pM GM-CSF, 200 μg/mL ciprofloxacin) was −53.8 ± 16.1% and the “% change … (compared to GM-CSF free control)” value (P. aeruginosa PAO1; persisters, 1.7 pM GM-CSF, 200 μg/mL gentamicin) was −12.7 ± 8.8%. For the same substance, the “% change … (compared to GM-CSF free control)” value (P. aeruginosa PAO1; persisters, 1.7 pM GM-CSF, 200 μg/mL tobramycin) was −82.7 ± 2.3%, the “% change … (compared to GM-CSF free control)” value (P. aeruginosa PAO1; persisters, 17 pM GM-CSF, 200 μg/mL ciprofloxacin) was −74.0 ± 2.9% and the “% change … (compared to GM-CSF free control)” value (P. aeruginosa PAO1; persisters, 17 pM GM-CSF, 200 μg/mL gentamicin) was −25.4 ± 10.6%. The “% change … (compared to GM-CSF free control)” value (P. aeruginosa PAO1; persisters, 17 pM GM-CSF, 200 μg/mL tetracycline) was −91.2 ± 3.2%, the “% change … (compared to GM-CSF free control)” value (P. aeruginosa PAO1; persisters, 17 pM GM-CSF, 200 μg/mL tobramycin) was −86.5 ± 1.7% and the “% change … (compared to GM-CSF free control)” value (P. aeruginosa PAO1; total viable cells, 1.7 pM GM-CSF, 200 μg/mL ciprofloxacin) was −19.5 ± 15.6%. The “% change … (compared to GM-CSF free control)” value (P. aeruginosa PAO1; total viable cells, 1.7 pM GM-CSF, 200 μg/mL gentamicin) was −13.1 ± 7.4%, the “% change … (compared to GM-CSF free control)” value (P. aeruginosa PAO1; total viable cells, 1.7 pM GM-CSF, 200 μg/mL tobramycin) was −9.4 ± 20.0% and the “% change … (compared to GM-CSF free control)” value (P. aeruginosa PAO1; total viable cells, 17 pM GM-CSF, 200 μg/mL ciprofloxacin) was −10.3 ± 21.5%. For the same substance, the “% change … (compared to GM-CSF free control)” value (P. aeruginosa PAO1; total viable cells, 17 pM GM-CSF, 200 μg/mL gentamicin) was −15.9 ± 7.4%, the “% change … (compared to GM-CSF free control)” value (P. aeruginosa PAO1; total viable cells, 17 pM GM-CSF, 200 μg/mL tetracycline) was −1.0 ± 12.4% and the “% change … (compared to GM-CSF free control)” value (P. aeruginosa PAO1; total viable cells, 17 pM GM-CSF, 200 μg/mL tobramycin) was “+3.1 ± 18.6%”. The “% change in avg. CFU/ml after adding factor + CIP” value ([1]; 24-h PAO1 biofilm, 2.43 pg/mL GM-CSF with 200 μg/mL ciprofloxacin) was −23.8%, the “% change in avg. CFU/ml after adding factor + TET” value ([1]; 24-h PAO1 biofilm, 2.43 pg/mL GM-CSF with 200 μg/mL tetracycline) was −10.0% and the “% change in avg. CFU/ml after adding factor + TOB” value ([1]; 24-h PAO1 biofilm, 2.43 pg/mL GM-CSF with 200 μg/mL tobramycin) was −34.1%. For the same substance, the “% change in avg. CFU/ml after adding factor + GEN” value ([1]; 24-h PAO1 biofilm, 2.43 pg/mL GM-CSF with 250 μg/mL gentamycin) was −12.9%, the “average CFU/ml of biofilm cells reduced by” value ([1]; reduction, PAO1 biofilm, 2.43 pg/mL GM-CSF alone, average of 2 experiments) was 1.3% and the “average CFU/mL of biofilm cells reduced by” value ([1]; reduction, PAO1 biofilm, 2.43 pg/mL GM-CSF in the presence of 200 μg/mL ciprofloxacin) was 22.8%. The “average CFU/mL of biofilm cells reduced by” value ([1]; reduction, PAO1 biofilm, 2.43 pg/mL GM-CSF in the presence of 200 μg/mL tetracycline) was 7.5%, the “average CFU/mL of biofilm cells reduced by” value ([1]; reduction, PAO1 biofilm, 2.43 pg/mL GM-CSF in the presence of 200 μg/mL tobramycin) was 33.3% and the “average CFU/mL of biofilm cells reduced by” value ([1]; reduction, PAO1 biofilm, 2.43 pg/mL GM-CSF in the presence of 250 μg/mL gentamicin) was 10.5%. For the same substance, the “% change in avg. CFU/ml after adding factor + CIP” value (E. coli K12 biofilm; 24-h E. coli K12 biofilm, 2.43 pg/mL GM-CSF with 100 μg/mL ciprofloxacin) was “+4.8%”, the “% change in avg. CFU/ml after adding factor + TET” value (E. coli K12 biofilm; 24-h E. coli K12 biofilm, 2.43 pg/mL GM-CSF with 100 μg/mL tetracycline) was “+3.6%” and the “% change in avg. CFU/ml after adding factor + TOB” value (E. coli K12 biofilm; 24-h E. coli K12 biofilm, 2.43 pg/mL GM-CSF with 100 μg/mL tobramycin) was “+4.2%”. For the same substance, the “% change in avg. CFU/ml after adding factor + GEN” value (E. coli K12 biofilm; 24-h E. coli K12 biofilm, 2.43 pg/mL GM-CSF with 125 μg/mL gentamicin) was “+8.1%”, the “average CFU/mL of biofilm cells changed by” value (E. coli K12 biofilm; E. coli K12 biofilm, 2.43 pg/mL GM-CSF alone, average of 2 experiments) was “+4.83%” and the “average CFU/ml of biofilm cells changed by” value (E. coli K12 biofilm; E. coli K12 biofilm, 2.43 pg/mL GM-CSF in the presence of 100 μg/mL ciprofloxacin) was “+1.2%”. The “average CFU/ml of biofilm cells changed by” value (E. coli K12 biofilm; E. coli K12 biofilm, 2.43 pg/mL GM-CSF in the presence of 100 μg/mL tetracycline) was −2.4%, the “average CFU/ml of biofilm cells changed by” value (E. coli K12 biofilm; E. coli K12 biofilm, 2.43 pg/mL GM-CSF in the presence of 100 μg/mL tobramycin) was “+0.6%” and the “average CFU/ml of biofilm cells changed by” value (E. coli K12 biofilm; E. coli K12 biofilm, 2.43 pg/mL GM-CSF in the presence of 125 μg/mL gentamicin) was “+1.9%”. The “binding to whole cells” value [2] was “does bind”.
